We go through 28 compounds from paper PMC8078842 (PLoS Neglected Tropical Diseases, 2021).

Where a name gives a salt, the structure may show the parent alone. Read-outs that look alike come from different tables or passages of the source. Bridge positions count the residues as written; N and C are the ends. Ends that are not written are not given here.

One series deals with Angiotensin II, AT2. On the set-up: method as in PERKIN ELMER. The conditions noted are these: reference compound of the assay; ref PERKIN ELMER; cited from earlier work.
The target of series [1] is Adrenergic, Beta, Non-selective. On the set-up: method as in PERKIN ELMER. The conditions noted are these: reference compound of the assay; ref PERKIN ELMER; cited from earlier work.
For series [2], the target named is Decarboxylase, Glutamic Acid. Further details: method as in PERKIN ELMER. As to conditions: reference compound of the assay; ref PERKIN ELMER; cited from earlier work.
Another series has as its target Melatonin, Non-selective. Further details: method as in PERKIN ELMER. As to conditions: reference compound of the assay; ref PERKIN ELMER; cited from earlier work.
Series [3] concerns the target Potassium Channel, ATP-Sensitive. Further details: method as in PERKIN ELMER. The conditions noted are these: reference compound of the assay; ref PERKIN ELMER; cited from earlier work.
The target in series [4] is Glutamate, AMPA Site (Ionotropic). Further details: method as in PERKIN ELMER. As to conditions: reference compound of the assay; ref PERKIN ELMER; cited from earlier work.
The target of series [5] is Glycine, Strychnine-sensitive. As to conditions: read-out: Reference Ki; reference compound of the assay; ref PERKIN ELMER; cited from earlier work.
Series [6] addresses GABA A, BDZ, alpha 1 site. The conditions noted are these: read-out: Reference Ki; reference compound of the assay; ref PERKIN ELMER; cited from earlier work.
In series [7] the target is Glutamate, Kainate Site (Ionotropic). On the set-up: method as in PERKIN ELMER. As to conditions: reference compound of the assay; ref PERKIN ELMER; cited from earlier work.
For another series, the target named is Sodium, Site 2. On the set-up: method as in PERKIN ELMER. As to conditions: reference compound of the assay; ref PERKIN ELMER; cited from earlier work.
The target in series [8] is T1, Oxidase, MAO-A-Peripheral (Rattus norvegicus, UniProt P21396).
T1 sequence (P21396 1-526): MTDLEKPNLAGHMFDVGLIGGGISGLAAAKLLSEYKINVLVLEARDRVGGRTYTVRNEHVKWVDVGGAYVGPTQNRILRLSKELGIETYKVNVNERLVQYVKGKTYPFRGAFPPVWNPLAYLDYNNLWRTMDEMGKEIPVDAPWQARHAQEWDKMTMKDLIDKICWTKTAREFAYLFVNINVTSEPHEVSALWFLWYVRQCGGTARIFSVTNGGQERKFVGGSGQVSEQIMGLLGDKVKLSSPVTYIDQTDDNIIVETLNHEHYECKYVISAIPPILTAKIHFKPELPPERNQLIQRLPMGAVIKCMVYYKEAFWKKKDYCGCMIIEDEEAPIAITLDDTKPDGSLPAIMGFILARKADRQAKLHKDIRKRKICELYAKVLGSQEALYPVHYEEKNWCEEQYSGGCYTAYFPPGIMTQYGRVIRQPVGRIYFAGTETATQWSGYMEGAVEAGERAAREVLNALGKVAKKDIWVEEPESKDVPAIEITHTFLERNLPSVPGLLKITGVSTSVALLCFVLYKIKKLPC
Further details: method as in PERKIN ELMER. As to conditions: reference compound of the assay; ref PERKIN ELMER; cited from earlier work.

Series [9] concerns the target Corticotropin Releasing Factor, Non-selective. On the set-up: method as in PERKIN ELMER. The conditions noted are these: reference compound of the assay; ref PERKIN ELMER; cited from earlier work.
In a further series the test system is human red blood cells. The series can be described thus: Haemolysis assay. The class given is cell-based. As to the method:
Haemolysis Assay. The assay is based on the protocol detailed by. To determine the total blood haemoglobin, the CMH method was used to map a standard curve based on the absorption wavelength at 540 nm. Nine calibration standards were produced by preparing a stock solution of 5 mg/ml (standard 1) using haemoglobin standards in CMH reagent and serially diluting it to produce further standards of concentrations 2.5, 1, 0.80, 0.40, 0.20, 0.10, 0.05, and 0.025 mg/ml. 10% Triton X-100 (v/v) was prepared using distilled water to be used as the positive control. A 0.05% solution of DMSO was prepared using distilled water and used as one of the negative controls. 0.9% saline was another negative control. Pluronic samples were prepared in 0.9% saline.
A 5 ml vial of whole blood was centrifuged at 800 g for 15 minutes at room temperature. The supernatant was removed, and the […] was used to determine the plasma free haemoglobin (PFH) concentration.
200 μl x 2 of each of the calibration standards prepared were then transferred onto the 96-well plate and 200 μl x 4 of CMH reagent (control 1). […] After shaking it gently for a few minutes, the absorbance was read at 540 nm. […] 100 μl of CMH reagent was added to all these before measuring the absorbance spectrophotometrically at 540 nm. Using the calibration curve mapped earlier, the haemoglobin concentration in each of the wells was determined. […]

For series [10] the following is noted: cited from earlier work.
In series [11] the target is Cholecystokinin, CCK2 (CCKB). On the set-up: method as in PERKIN ELMER. As to conditions: reference compound of the assay; ref PERKIN ELMER; cited from earlier work.
The target in series [12] is Nicotinic, Neuronal (a-BnTx insensitive). Further details: method as in PERKIN ELMER. The conditions noted are these: reference compound of the assay; ref PERKIN ELMER; cited from earlier work.
For another series, the system named is P-gp (human MDR1). The series can be described thus: in vitro. As to conditions: dog, UPLC-MS/MS.
The target of the next series is Adenosine, Non-selective. As to conditions: read-out: Reference Ki; reference compound of the assay; ref PERKIN ELMER; cited from earlier work.
The target of series [13] is Glutamate, MK-801 Site (Ionotropic). On the set-up: method as in PERKIN ELMER. The conditions noted are these: reference compound of the assay; ref PERKIN ELMER; cited from earlier work.
Series [14] addresses Nitric Oxide, NOS (Neuronal-Binding). Further details: method as in PERKIN ELMER. As to conditions: reference compound of the assay; ref PERKIN ELMER; cited from earlier work.
A further series has as its target Histamine, H1. On the set-up: method as in PERKIN ELMER. The conditions noted are these: reference compound of the assay; ref PERKIN ELMER; cited from earlier work.
The target of series [15] is Potassium Channel, Ca2+ Act., VI. On the set-up: method as in PERKIN ELMER. The conditions noted are these: reference compound of the assay; ref PERKIN ELMER; cited from earlier work.
In series [16] the target is Glutamate,NMDA,Glycine (Stry-insens Site) (Ionot). As to conditions: read-out: Reference Ki; reference compound of the assay; ref PERKIN ELMER; cited from earlier work.
In series [17] the target is Glutamate, NMDA Agonist Site (Ionotropic). On the set-up: method as in PERKIN ELMER. As to conditions: reference compound of the assay; ref PERKIN ELMER; cited from earlier work.
Another series concerns the target Esterase, Acetylcholine. Further details: method as in PERKIN ELMER. As to conditions: reference compound of the assay; ref PERKIN ELMER; cited from earlier work.
Series [18] deals with Muscarinic, Non-selective, Central. Further details: method as in PERKIN ELMER. The conditions noted are these: reference compound of the assay; ref PERKIN ELMER; cited from earlier work.
Series [19] addresses Imidazoline, I2 [central]. On the set-up: method as in PERKIN ELMER. The conditions noted are these: reference compound of the assay; ref PERKIN ELMER; cited from earlier work.
Where [20] appears, read: MDCK-MDR1, pH 7.4, Papp A2B Replicate 1, 10 µM.
Setting [21] is: MDCK-MDR1, pH 7.4, Papp A2B Replicate 2, 10 µM.
[22] abbreviates: MDCK-MDR1, pH 7.4, Papp B2A Replicate 1, 10 µM.
[23] abbreviates: MDCK-MDR1, pH 7.4, Papp B2A Replicate 2, 10 µM.

A word on the Ki: it is a measure of affinity in units of concentration, obtained from inhibition or displacement. Turning to Angiotensin II (Human), the Ki at Angiotensin II, AT2 was 0.255 nM.
Regarding `C=CCc1ccccc1OCC(O)CNC(C)C` (centres unmarked) [Alprenolol HCl], the Ki in series [1] was 4.55 nM.
On to `NOCC(=O)O` [AminoOxy acetic acid], for which the Ki in series [2] is 1170 nM.
For the compound `COc1ccc2[nH]cc(CCNC(C)=O)c2c1` [Melatonin], at Melatonin, Non-selective, the Ki was […].
As to `COc1ccc(Cl)cc1C(=O)NCCc1ccc(S(=O)(=O)NC(=O)NC2CCCCC2)cc1` [Glibenclamide], in [3], the Ki is 0.781 nM.
Turning to `Cc1o[nH]c(=O)c1CC(N)C(=O)O` (racemic) [(+/-) AMPA HBr], the Ki in [4] was 90.7 nM.
`O=C1C[C@@H]2OCC=C3CN4CC[C@]56c7ccccc7N1[C@H]5[C@H]2[C@H]3C[C@H]46` [Strychnine nitrate]: in [5], the Ki is 28.1 nM.
On to `CCOC(=O)c1ncn2c1CN(C)C(=O)c1cc(F)ccc1-2` [Ro15-1788 (Flumazenil)], for which the inhibition constant (Ki) in series [6] is 0.721 nM.
Regarding `C=C(C)[C@H]1CN[C@H](C(=O)O)[C@H]1CC(=O)O` [Kainic Acid], in series [7], the Ki was 10.8 nM.
On to `CCN1C[C@]2(COC)[C@H](O)C[C@H](OC)[C@@]34[C@@H]5C[C@@]6(O)[C@H](OC(=O)c7ccccc7)[C@@H]5[C@@](OC(C)=O)([C@@H]([C@H](OC)[C@H]23)[C@@H]14)[C@@H](O)[C@@H]6OC` [Aconitine], for which, on Sodium, Site 2, the Ki was 2290 nM.
Take `c1cc2c(cc1C1CCCCC1)c1c3n2CCNC3CCC1` (centres unmarked) [Tetrindole mesylate]: the Ki in [8] was 23.4 nM.
Regarding Tyr0-oCRF, the Ki in series [9] was 10.7 nM.
As for Triton X-100 [10% Triton X-100], the haemolysis entry with human red blood cells is “caused haemolysis”.
`c1cc2ccc3cccc4ccc(c1)c2c34` [pyrene]: the “log P for pyrene/Pluronics” value is on record as “ca. 2.5” in series [10] (F68) and approximately 3.5 in [10] (P105).
For the compound CCK-8 (sulfated), the Ki in series [11] was 0.307 nM.
Consider `Clc1ccc([C@@H]2C[C@H]3CC[C@@H]2N3)cn1` (racemic) [(+/-) Epibatidine], for which the Ki in series [12] was 0.0912 nM.
Usually Papp A→B stands for how fast a substance crosses the layer from the apical side. A low value points to poor permeation. Broadly, the Papp B→A is how fast a substance crosses the layer from the basolateral side. Take `CC(C)NCC(O)COc1cccc2ccccc12` (centres unmarked) [propranolol]: the Papp A→B at 1 h, 10 µM with P-gp (human MDR1) (setting [20]) stood at 34.1 ×10⁻⁶ cm/s; in the series with P-gp (human MDR1) (setting [21]), 28 ×10⁻⁶ cm/s. Further, the Papp B→A at 1 h, 10 µM turned out to be 41.4 ×10⁻⁶ cm/s in the series with P-gp (human MDR1) (setting [22]) and 41.6 ×10⁻⁶ cm/s in the series on P-gp (human MDR1) (setting [23]).
Regarding `CCNC(=O)[C@H]1O[C@@H](n2cnc3c(N)ncnc32)[C@H](O)[C@@H]1O` [Neca], the Ki on Adenosine, Non-selective is 7.46 nM.
As for (+)-MK-801 HMaleate, the Ki in [13] was 12.4 nM.
For `COc1cc2nc(N3CCN(C(=O)c4ccco4)CC3)nc(N)c2cc1OC` [prazosin], the figures for the apparent permeability from apical to basolateral (Papp A→B) at 1 h, 10 µM in the series on P-gp (human MDR1) (setting [20]) and in the series with P-gp (human MDR1) (setting [21]) were 2.48 ×10⁻⁶ cm/s and 1.96 ×10⁻⁶ cm/s, respectively. For the same compound, the Papp B→A at 1 h, 10 µM came out at 69.5 ×10⁻⁶ cm/s in the series with P-gp (human MDR1) (setting [22]) and 70.7 ×10⁻⁶ cm/s in the series on P-gp (human MDR1) (setting [23]).
Consider `NC(=NCCC[C@H](N)C(=O)O)N[N+](=O)[O-]` [NOARG (Nitro-L-Arginine)], for which, in series [14], the Ki was 26.3 nM.
In the case of `Cc1ccc(/C(=C\CN2CCCC2)c2ccccn2)cc1` [Triprolidine], the inhibitory constant (Ki) at Histamine, H1 was 7.33 nM.
Consider “Apamin (CNCKAPETALCARRCQQH-NH2; disulfide 1-11, 3-15; ends not checked; UniProt P01500 28-45, looked up)”, for which the Ki in series [15] was 0.205 nM.
As to `O=C(O)/C(=C/c1c(C(=O)O)[nH]c2cc(Cl)cc(Cl)c12)c1ccccc1` [MDL-105,519], the Ki in series [16] is 31.5 nM.
Regarding `CN[C@H](CC(=O)O)C(=O)O` [NMDA], the Ki in [17] was 6810 nM.
Take `CNC(=O)Oc1ccc2c(c1)[C@]1(C)CCN(C)[C@@H]1N2C` [Eserine (Physostigmine)]: the Ki at Esterase, Acetylcholine was 385 nM.
Take `CN1[C@@H]2CC[C@H]1C[C@@H](OC(=O)C(CO)c1ccccc1)C2` (some centres unmarked) [Atropine sulfate]: the Ki in series [18] was 0.311 nM.
Regarding `c1ccc2oc(C3=NCCN3)cc2c1` [2-BFI], in series [19], the Ki was 0.381 nM.
